Measured values taken from article PMC7108868, “Agonist-mediated switching of ion selectivity in TPC2 differentially promotes lysosomal function” (eLife, 2020).
Read-outs that look alike come from different tables or passages of the source. Each block holds one molecule with its values, some of them ahead of it.

Key:
Assay type in all cases: cell-based
[1] = target: T1, TPC2 (Homo sapiens, UniProt Q8NHX9, L11A/L12A); test: Fura-2 Ca2+ imaging, block of TPC2-A1-N response at […]
T1 construct: gene TPCN2; hTPC2^L11A/L12A (plasma membrane targeted)

[2] = target: T2, TPC2 (Mus musculus, UniProt Q8BWC0); test: endo-lysosomal patch-clamp, […], with TPC2 KO control; parameters: gene Tpcn2; mTPC2; endogenous TPC2 in alveolar macrophages
[3] = target: T3, TPC2 (Homo sapiens, UniProt Q8NHX9); test: endo-lysosomal patch-clamp (also FLIPR Ca2+ assay, EC50 […])
T3 construct: gene TPCN2; hTPC2, C-terminal YFP

[4] = target: T3, TPC2; test: as above; remark: listed apart in the source
[5] = target: T2, TPC2; test: GCaMP Ca2+ imaging and endo-lysosomal patch-clamp, […]; parameters: gene Tpcn2; MmTPC2-GCaMP6s; mTPC2

T1 sequence (Q8NHX9 whole entry L11A/L12A): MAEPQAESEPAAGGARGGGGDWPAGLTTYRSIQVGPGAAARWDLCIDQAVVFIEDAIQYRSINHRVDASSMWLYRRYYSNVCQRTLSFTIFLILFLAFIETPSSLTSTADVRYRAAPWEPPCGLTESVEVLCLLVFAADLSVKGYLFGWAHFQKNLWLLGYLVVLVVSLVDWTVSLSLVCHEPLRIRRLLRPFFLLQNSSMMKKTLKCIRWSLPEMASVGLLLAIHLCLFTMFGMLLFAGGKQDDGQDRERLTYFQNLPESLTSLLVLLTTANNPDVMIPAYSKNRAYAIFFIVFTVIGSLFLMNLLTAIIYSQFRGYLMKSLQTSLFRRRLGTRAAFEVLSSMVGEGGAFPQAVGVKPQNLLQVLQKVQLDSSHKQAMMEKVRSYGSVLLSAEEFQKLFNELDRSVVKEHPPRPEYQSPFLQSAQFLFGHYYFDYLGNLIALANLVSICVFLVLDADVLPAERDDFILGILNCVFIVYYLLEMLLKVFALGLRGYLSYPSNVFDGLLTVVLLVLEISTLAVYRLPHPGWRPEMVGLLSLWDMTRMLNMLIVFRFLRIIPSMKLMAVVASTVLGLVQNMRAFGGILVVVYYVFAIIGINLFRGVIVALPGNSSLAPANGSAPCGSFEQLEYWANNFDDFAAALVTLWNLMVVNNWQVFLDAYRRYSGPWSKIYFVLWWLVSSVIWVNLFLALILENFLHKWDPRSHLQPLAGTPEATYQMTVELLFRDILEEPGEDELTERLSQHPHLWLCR
T2 sequence (Q8BWC0 whole entry): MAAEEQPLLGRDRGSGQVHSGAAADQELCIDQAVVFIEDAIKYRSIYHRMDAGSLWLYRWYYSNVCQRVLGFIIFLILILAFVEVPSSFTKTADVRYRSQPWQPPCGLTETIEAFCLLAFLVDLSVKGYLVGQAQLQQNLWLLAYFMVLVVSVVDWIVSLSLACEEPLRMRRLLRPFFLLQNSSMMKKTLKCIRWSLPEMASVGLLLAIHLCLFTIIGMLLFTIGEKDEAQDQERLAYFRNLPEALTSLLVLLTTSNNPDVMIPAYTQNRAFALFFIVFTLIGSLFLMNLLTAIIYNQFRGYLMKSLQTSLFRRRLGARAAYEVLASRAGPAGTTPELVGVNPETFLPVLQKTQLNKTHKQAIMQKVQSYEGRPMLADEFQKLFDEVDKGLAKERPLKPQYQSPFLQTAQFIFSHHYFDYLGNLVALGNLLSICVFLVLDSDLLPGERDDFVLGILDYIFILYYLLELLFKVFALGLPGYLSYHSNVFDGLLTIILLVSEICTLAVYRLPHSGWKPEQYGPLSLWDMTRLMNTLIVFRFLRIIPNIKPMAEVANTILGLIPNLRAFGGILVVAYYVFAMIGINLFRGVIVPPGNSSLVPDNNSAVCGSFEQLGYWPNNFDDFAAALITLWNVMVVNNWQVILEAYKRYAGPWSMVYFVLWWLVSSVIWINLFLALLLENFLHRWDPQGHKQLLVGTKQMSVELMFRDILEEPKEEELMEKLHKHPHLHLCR
T3 sequence (Q8NHX9 whole entry): as the sequence (Q8NHX9 whole entry L11A/L12A) above, with A11L, A12L counted along it

Compound: OCCN1CCN(CCCN2c3ccccc3Sc3ccc(C(F)(F)F)cc32)CC1 [Flu, fluphenazine]
Fura-2 Ca2+ imaging, block of TPC2-A1-N response at 10 μM [1]: responses to TPC2-A1-N were selectively blocked by the recently identified TPC2 blockers tetrandrine (Tet), raloxifene (Ral), and fluphenazine (Flu)

Compound: Cc1c(C(=O)O)cc(-c2cc(Br)ccc2OC(F)(F)F)n1CC1CCCCC1 [TPC2-A1-P, 5-(5-Bromo-2-(trifluoromethoxy)phenyl)−1-(cyclohexylmethyl)−2-methyl-1H-pyrrole-3-carboxylic acid]
endo-lysosomal patch-clamp, 10 μM, with TPC2 KO control [2]: both TPC2-A1-N and TPC2-A1-P evoked measurable endogenous TPC2-like currents in macrophages from wild-type animals | EC50 [3]: 600 nM

EC50 [4]: 600 nM
Compound: N#CC(C(=O)Nc1ccc(C(F)(F)F)cc1)=C(O)c1cc(Cl)cc(Cl)c1 [TPC2-A1-N, 2-Cyano-3-(3,5-dichlorophenyl)−3-hydroxy-N-(4-(trifluoromethyl)phenyl)acrylamide]
GCaMP Ca2+ imaging and endo-lysosomal patch-clamp, 10 μM [5]: mouse TPC2 fused to GCaMP6 (MmTPC2^GCaMP) confirmed that TPC2-A1-N evoked larger responses than TPC2-A1-P

Compound: O=C(c1ccc(OCCN2CCCCC2)cc1)c1c(-c2ccc(O)cc2)sc2cc(O)ccc12 [Ral, raloxifene]
Fura-2 Ca2+ imaging, block of TPC2-A1-N response at 10 μM [1]: responses to TPC2-A1-N were selectively blocked by the recently identified TPC2 blockers tetrandrine (Tet), raloxifene (Ral), and fluphenazine (Flu)

Compound: COc1ccc2cc1Oc1ccc(cc1)C[C@H]1c3cc(c(OC)cc3CCN1C)Oc1c(OC)c(OC)cc3c1[C@H](C2)N(C)CC3 [Tet, tetrandrine]
Fura-2 Ca2+ imaging, block of TPC2-A1-N response at 10 μM [1]: responses to TPC2-A1-N were selectively blocked by the recently identified TPC2 blockers tetrandrine (Tet), raloxifene (Ral), and fluphenazine (Flu)
